Assays:
Test in all cases: Z'-LYTE kinase panel
Format in all cases: biochemical
[1] = biological target: T1, ADRBK2 (GRK3) (Homo sapiens, UniProt P35626)
T1 construct: purchased ThermoFisher (SelectScreen, Z'-LYTE)
T1 sequence (P35626 1-688): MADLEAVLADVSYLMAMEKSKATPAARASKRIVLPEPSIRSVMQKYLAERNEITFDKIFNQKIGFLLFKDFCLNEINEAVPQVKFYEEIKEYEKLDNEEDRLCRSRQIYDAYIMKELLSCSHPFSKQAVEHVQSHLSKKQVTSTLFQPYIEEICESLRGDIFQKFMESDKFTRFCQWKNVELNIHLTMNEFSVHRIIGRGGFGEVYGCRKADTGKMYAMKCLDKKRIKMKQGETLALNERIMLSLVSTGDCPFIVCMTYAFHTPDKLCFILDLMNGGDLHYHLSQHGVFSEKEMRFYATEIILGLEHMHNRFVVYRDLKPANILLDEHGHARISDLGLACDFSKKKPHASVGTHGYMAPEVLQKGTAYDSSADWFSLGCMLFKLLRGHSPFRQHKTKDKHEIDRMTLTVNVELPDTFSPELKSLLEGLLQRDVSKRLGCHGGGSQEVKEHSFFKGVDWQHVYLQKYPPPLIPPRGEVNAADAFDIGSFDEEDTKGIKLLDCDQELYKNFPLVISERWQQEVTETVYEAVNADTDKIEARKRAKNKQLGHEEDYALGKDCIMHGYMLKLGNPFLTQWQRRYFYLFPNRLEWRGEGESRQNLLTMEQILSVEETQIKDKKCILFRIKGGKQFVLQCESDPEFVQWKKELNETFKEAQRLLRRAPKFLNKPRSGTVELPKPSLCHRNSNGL
Outline: (§1)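 Each compound was added at 10 µM, kinase activity was then measured via the standard Z′-LYTE assay, and percentage inhibition was calculated; 225 kinases were covered.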

[2] = biological target: T2, CDC42 BPA (MRCKA) (Homo sapiens, UniProt Q5VT25)
T2 construct: purchased ThermoFisher (SelectScreen, Z'-LYTE)
T2 sequence (Q5VT25 whole entry): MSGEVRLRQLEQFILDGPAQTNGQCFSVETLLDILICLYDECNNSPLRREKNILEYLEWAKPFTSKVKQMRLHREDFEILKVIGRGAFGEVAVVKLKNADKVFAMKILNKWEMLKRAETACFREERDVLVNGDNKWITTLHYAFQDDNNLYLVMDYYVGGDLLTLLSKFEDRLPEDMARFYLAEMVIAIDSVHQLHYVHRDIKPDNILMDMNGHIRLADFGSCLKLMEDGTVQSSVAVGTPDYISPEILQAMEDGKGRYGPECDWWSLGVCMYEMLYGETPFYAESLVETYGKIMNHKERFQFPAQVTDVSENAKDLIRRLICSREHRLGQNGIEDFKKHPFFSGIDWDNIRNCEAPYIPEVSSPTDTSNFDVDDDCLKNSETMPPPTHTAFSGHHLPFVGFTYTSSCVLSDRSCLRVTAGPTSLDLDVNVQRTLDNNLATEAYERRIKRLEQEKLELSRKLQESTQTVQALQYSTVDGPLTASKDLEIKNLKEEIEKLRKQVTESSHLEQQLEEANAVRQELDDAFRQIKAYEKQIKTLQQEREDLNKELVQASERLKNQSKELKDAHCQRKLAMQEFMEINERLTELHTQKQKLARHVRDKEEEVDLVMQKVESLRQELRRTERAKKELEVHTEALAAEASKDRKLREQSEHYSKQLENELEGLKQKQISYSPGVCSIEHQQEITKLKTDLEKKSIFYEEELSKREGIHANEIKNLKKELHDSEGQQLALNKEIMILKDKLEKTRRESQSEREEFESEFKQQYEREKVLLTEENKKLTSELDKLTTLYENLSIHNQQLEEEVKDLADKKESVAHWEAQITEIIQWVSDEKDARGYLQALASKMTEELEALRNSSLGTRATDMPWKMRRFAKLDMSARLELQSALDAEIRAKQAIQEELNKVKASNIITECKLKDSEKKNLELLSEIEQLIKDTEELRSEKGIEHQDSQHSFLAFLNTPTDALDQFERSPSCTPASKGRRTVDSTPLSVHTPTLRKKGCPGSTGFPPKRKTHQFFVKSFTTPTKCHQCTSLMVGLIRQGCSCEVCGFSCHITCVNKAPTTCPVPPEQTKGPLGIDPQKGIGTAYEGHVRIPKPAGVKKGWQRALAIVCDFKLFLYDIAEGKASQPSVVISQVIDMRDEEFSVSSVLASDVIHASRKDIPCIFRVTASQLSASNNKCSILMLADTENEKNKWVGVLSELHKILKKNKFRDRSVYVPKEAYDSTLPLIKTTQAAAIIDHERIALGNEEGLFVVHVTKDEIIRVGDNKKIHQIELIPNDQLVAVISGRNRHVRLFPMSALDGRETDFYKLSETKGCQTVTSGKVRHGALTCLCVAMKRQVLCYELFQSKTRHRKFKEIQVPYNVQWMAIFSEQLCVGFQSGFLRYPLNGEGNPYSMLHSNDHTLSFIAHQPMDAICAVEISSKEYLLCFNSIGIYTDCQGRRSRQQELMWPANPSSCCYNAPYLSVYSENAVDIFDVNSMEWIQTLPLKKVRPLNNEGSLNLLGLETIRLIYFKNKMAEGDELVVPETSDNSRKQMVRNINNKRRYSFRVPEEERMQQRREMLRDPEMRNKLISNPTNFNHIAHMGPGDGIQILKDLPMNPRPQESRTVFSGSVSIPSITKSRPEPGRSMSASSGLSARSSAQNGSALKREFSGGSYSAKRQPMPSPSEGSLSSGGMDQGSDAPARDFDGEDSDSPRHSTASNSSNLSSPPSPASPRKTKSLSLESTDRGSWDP
Outline: as §1

[3] = biological target: T3, CDC42 BPB (MRCKB) (Homo sapiens, UniProt Q9Y5S2)
T3 construct: purchased ThermoFisher (SelectScreen, Z'-LYTE)
T3 sequence (Q9Y5S2 whole entry): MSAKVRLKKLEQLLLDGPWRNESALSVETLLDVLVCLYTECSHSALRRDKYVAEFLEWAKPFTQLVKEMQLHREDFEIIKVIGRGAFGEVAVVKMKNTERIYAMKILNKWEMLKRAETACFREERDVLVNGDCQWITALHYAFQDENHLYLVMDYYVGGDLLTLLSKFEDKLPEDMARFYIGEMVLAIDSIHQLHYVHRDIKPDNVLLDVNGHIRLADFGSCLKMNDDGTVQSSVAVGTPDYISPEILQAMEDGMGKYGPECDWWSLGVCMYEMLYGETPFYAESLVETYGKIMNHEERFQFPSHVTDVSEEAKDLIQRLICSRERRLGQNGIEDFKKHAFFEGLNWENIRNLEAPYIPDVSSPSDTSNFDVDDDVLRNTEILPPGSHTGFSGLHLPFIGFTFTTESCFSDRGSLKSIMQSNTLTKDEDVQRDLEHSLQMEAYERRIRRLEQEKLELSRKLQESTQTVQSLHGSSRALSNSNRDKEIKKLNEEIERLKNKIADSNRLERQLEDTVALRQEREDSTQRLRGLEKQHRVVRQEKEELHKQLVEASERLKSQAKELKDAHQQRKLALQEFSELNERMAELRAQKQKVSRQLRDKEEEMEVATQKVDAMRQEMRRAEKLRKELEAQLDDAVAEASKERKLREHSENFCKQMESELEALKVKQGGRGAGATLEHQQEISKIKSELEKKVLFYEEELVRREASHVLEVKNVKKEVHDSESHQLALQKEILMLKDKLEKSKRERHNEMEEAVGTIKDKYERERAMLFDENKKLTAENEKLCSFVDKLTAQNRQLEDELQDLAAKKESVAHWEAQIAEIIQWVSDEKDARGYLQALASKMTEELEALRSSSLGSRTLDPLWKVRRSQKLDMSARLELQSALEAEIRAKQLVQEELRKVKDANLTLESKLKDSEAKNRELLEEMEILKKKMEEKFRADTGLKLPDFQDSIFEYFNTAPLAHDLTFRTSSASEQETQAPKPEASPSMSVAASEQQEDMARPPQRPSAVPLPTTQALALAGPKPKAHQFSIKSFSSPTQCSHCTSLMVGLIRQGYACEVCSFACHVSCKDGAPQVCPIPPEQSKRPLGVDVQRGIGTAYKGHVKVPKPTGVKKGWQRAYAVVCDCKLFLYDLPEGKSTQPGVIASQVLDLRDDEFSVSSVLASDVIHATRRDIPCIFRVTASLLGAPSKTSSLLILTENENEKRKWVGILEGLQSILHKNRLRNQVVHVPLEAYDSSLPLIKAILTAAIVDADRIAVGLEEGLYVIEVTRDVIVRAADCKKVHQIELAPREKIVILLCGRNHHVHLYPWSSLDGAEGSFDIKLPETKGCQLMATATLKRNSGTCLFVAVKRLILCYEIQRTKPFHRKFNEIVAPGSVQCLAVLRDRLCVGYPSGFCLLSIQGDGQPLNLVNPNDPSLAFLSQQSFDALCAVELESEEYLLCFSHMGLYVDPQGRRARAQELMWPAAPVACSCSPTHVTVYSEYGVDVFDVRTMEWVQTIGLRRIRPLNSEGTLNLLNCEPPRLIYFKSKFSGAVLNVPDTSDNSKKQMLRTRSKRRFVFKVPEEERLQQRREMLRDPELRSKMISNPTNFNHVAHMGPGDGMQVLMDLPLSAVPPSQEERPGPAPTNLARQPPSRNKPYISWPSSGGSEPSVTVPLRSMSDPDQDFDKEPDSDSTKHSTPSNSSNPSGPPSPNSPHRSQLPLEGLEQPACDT
Outline: as §1

[4] = biological target: T4, CLK1 (Homo sapiens, UniProt P49759)
T4 construct: purchased ThermoFisher (SelectScreen, Z'-LYTE)
Outline: as §1

[5] = biological target: T5, CSNK1A1 (CK1 alpha 1) (Homo sapiens, UniProt P48729)
T5 construct: purchased ThermoFisher (SelectScreen, Z'-LYTE)
Outline: as §1

[6] = biological target: T6, CSNK2A1 (CK2 alpha 1) (Homo sapiens, UniProt P68400)
T6 construct: purchased ThermoFisher (SelectScreen, Z'-LYTE)
Outline: as §1

[7] = biological target: T7, DYRK3 (Homo sapiens, UniProt O43781)
T7 construct: purchased ThermoFisher (SelectScreen, Z'-LYTE)
T7 sequence (O43781 1-588): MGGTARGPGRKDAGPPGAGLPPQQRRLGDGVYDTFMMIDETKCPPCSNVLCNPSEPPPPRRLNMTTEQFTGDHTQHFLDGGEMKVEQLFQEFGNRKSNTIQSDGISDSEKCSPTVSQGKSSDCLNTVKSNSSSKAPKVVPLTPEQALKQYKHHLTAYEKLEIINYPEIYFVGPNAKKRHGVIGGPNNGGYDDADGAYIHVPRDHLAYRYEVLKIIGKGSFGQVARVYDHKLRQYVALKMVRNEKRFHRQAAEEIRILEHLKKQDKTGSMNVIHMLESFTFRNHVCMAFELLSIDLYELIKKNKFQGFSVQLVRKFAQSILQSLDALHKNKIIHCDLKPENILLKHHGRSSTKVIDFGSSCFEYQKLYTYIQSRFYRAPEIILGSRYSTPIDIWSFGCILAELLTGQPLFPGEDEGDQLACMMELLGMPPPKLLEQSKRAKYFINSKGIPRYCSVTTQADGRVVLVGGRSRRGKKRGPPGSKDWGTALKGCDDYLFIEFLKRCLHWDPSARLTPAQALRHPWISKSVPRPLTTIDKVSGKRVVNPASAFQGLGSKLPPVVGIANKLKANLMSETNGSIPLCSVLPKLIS
Outline: as §1

[8] = biological target: T8, FES (FPS) (Homo sapiens, UniProt P07332)
T8 construct: purchased ThermoFisher (SelectScreen, Z'-LYTE)
Outline: as §1

[9] = biological target: T9, FGFR3 (Homo sapiens, UniProt P22607)
T9 construct: purchased ThermoFisher (SelectScreen, Z'-LYTE)
Outline: as §1

[10] = biological target: T10, FYN (Homo sapiens, UniProt P06241)
T10 construct: purchased ThermoFisher (SelectScreen, Z'-LYTE)
Outline: as §1

[11] = biological target: T11, GRK5 (Homo sapiens, UniProt P34947)
T11 construct: purchased ThermoFisher (SelectScreen, Z'-LYTE)
Outline: as §1

[12] = biological target: T12, IGF1R (Homo sapiens, UniProt P08069)
T12 construct: purchased ThermoFisher (SelectScreen, Z'-LYTE)
Outline: as §1

[13] = biological target: T13, MAPK9 (JNK2) (Homo sapiens, UniProt P45984); conditions: 10 µM compound; ATP 100
T13 construct: purchased ThermoFisher (SelectScreen, Z'-LYTE)
Outline: as §1

[14] = biological target: T14, MAPKAPK2 (Homo sapiens, UniProt P49137)
T14 construct: purchased ThermoFisher (SelectScreen, Z'-LYTE)
T14 sequence (P49137 whole entry): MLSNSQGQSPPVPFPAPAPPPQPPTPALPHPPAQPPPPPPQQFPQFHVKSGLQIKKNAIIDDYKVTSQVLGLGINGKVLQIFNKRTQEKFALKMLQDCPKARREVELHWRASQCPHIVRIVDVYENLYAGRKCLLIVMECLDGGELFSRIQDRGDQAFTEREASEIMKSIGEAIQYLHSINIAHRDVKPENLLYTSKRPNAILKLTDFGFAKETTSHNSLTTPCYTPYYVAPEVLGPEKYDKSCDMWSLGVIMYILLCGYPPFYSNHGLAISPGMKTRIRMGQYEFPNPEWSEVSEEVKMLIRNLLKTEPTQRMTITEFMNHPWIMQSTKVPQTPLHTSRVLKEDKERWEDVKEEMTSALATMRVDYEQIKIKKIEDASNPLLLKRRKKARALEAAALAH
Outline: as §1

[15] = biological target: T15, MST1R (RON) (Homo sapiens, UniProt Q04912)
T15 construct: purchased ThermoFisher (SelectScreen, Z'-LYTE)
Outline: as §1

[16] = biological target: T16, MST4 (Homo sapiens, UniProt Q9P289)
T16 construct: purchased ThermoFisher (SelectScreen, Z'-LYTE)
T16 sequence (Q9P289 whole entry): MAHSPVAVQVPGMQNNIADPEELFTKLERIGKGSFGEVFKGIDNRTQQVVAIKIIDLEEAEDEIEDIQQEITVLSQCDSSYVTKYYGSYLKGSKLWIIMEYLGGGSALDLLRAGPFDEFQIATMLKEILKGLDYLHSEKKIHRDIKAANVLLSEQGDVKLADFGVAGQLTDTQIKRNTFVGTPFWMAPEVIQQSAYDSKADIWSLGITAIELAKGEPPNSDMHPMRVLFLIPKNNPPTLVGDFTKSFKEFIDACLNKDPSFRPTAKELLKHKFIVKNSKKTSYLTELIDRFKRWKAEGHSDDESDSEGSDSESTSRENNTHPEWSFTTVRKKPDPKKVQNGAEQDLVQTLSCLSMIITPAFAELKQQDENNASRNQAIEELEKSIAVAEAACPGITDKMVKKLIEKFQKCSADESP
Outline: as §1

[17] = biological target: T17, MYLK2 (skMLCK) (Homo sapiens, UniProt Q9H1R3)
T17 construct: purchased ThermoFisher (SelectScreen, Z'-LYTE)
Outline: as §1

[18] = biological target: T18, ROCK2 (Homo sapiens, UniProt O75116)
T18 construct: purchased ThermoFisher (SelectScreen, Z'-LYTE)
Outline: as §1

[19] = biological target: T19, RPS6KA2 (RSK3) (Homo sapiens, UniProt Q15349)
T19 construct: purchased ThermoFisher (SelectScreen, Z'-LYTE)
T19 sequence (Q15349 whole entry): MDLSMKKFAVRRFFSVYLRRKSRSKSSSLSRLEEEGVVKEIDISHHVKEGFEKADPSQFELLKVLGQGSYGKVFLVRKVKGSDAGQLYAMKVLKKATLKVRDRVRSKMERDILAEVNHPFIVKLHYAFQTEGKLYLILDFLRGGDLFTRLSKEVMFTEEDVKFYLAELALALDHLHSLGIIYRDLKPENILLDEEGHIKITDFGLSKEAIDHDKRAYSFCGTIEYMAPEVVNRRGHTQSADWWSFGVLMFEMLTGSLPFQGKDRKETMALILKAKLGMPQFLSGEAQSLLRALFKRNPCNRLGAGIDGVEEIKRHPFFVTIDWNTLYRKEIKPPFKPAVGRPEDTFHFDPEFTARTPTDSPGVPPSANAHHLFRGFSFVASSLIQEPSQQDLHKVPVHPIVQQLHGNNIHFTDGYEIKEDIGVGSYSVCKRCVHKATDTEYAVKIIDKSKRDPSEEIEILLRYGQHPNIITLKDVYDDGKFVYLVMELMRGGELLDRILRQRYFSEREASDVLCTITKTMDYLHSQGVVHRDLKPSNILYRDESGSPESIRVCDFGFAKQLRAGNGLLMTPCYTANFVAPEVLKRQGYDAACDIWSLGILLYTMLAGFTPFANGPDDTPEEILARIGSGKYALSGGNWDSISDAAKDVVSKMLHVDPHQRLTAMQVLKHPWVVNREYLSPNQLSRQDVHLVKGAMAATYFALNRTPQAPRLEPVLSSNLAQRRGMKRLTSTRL
Outline: as §1

[20] = biological target: T20, YES1 (Homo sapiens, UniProt P07947)
T20 construct: purchased ThermoFisher (SelectScreen, Z'-LYTE)
Outline: as §1

Compound | inhibition at 10 µM [1] [%] | inhibition at 10 µM [2] [%] | inhibition at 10 µM [3] [%] | inhibition at 10 µM [4] [%] | inhibition at 10 µM [5] [%] | inhibition at 10 µM [6] [%] | inhibition at 10 µM [7] [%] | inhibition at 10 µM [8] [%] | inhibition at 10 µM [9] [%] | inhibition at 10 µM [10] [%] | inhibition at 10 µM [11] [%] | inhibition at 10 µM [12] [%] | inhibition at 10 µM [13] [%] | inhibition at 10 µM [14] [%] | inhibition at 10 µM [15] [%] | inhibition at 10 µM [16] [%] | inhibition at 10 µM [17] [%] | inhibition at 10 µM [18] [%] | inhibition at 10 µM [19] [%] | inhibition at 10 µM [20] [%] | also measured
Cc1ncc(-c2nc(Nc3ccc(C(=O)NCCN4CCCCC4)cc3)ncc2F)n1C(C)C [Compound 3] | 0.689 | 17 | 8 | 101 | 28 | 40 | 93 | 106 | 54 | 74 | 39 | 67 | 103 | 52 | 67 | 75 | 78 | 40 | 90 | 85 | –
Cc1cc(Nc2nc(N)nn2C(=O)NC(C)C)ccc1Cl [Compound 5] | -7 | 5 | 5.45 | 10 | 4 | 8 | 0.141 | 9 | 13 | 15 | -0.422 | -0.717 | 4.72 | 6.56 | 1.17 | 43 | -0.775 | 37 | 70 | 46 | –
XMD8-92 [Compound 2, reference compound] | – | – | – | – | – | – | – | – | – | – | – | – | – | – | – | – | – | – | – | – | ADRBK2 (GRK3) % Inhibition ([1]; 10 µM compound, ATP Km app): -7%; CDC42 BPA (MRCKA) % Inhibition ([2]; 10 µM compound, ATP Km app): -2.25%; CDC42 BPB (MRCKB) % Inhibition ([3]; 10 µM compound, ATP Km app): -11%; CLK1 % Inhibition ([4]; 10 µM compound, ATP Km app): 6%; CSNK1A1 (CK1 alpha 1) % Inhibition ([5]; 10 µM compound, ATP Km app): 7%; CSNK2A1 (CK2 alpha 1) % Inhibition ([6]; 10 µM compound, ATP Km app): 8%; DYRK3 % Inhibition ([7]; 10 µM compound, ATP Km app): 31%; FES (FPS) % Inhibition ([8]; 10 µM compound, ATP Km app): 78%; FGFR3 % Inhibition ([9]; 10 µM compound, ATP Km app): 9%; FYN % Inhibition ([10]; 10 µM compound, ATP Km app): -14%; GRK5 % Inhibition ([11]; 10 µM compound, ATP Km app): 6%; IGF1R % Inhibition ([12]; 10 µM compound, ATP Km app): -1.87%; MAPK9 (JNK2) % Inhibition [13]: 5.42%; MAPKAPK2 % Inhibition ([14]; 10 µM compound, ATP Km app): 93%; MST1R (RON) % Inhibition ([15]; 10 µM compound, ATP Km app): 37%; MST4 % Inhibition ([16]; 10 µM compound, ATP Km app): 15%; MYLK2 (skMLCK) % Inhibition ([17]; 10 µM compound, ATP Km app): 42%; ROCK2 % Inhibition ([18]; 10 µM compound, ATP Km app): 93%; RPS6KA2 (RSK3) % Inhibition ([19]; 10 µM compound, ATP Km app): 23%; YES1 % Inhibition ([20]; 10 µM compound, ATP Km app): 41%
